Counter-ions that a name gives are not always drawn.
molecular target: T1, PI3Kγ (p101/p110γ protein) (Homo sapiens, UniProt P48736); experiment: PI3Kγ In Vitro Kinase Assay; type: biochemical; details: purified recombinant p101/p110γ with G protein β1/γ2 subunits; 20 μM ATP, 25 μM PIP2; 20 minutes at room temperature
T1 construct: HA; made in house; host or cells: Spodoptera frugiperda (Sf9) cells, baculovirus co-infection
Procedure, shortened: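 Sf9-expressed, purified human p101/p110γ (2.7 nM) was activated by Gβ1/γ2 (57.7 nM) and reacted with 20 μM ATP plus [γ-32P]ATP on PIP2 (25 μM)/PE (300 μM) micelles with 10 mM MgCl2 in HEPES buffer. Reactions ran 20 min at room temperature. Filter-captured radiolabeled PIP3 was counted by scintillation.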

T1 sequence (P48736 whole entry, species assumed): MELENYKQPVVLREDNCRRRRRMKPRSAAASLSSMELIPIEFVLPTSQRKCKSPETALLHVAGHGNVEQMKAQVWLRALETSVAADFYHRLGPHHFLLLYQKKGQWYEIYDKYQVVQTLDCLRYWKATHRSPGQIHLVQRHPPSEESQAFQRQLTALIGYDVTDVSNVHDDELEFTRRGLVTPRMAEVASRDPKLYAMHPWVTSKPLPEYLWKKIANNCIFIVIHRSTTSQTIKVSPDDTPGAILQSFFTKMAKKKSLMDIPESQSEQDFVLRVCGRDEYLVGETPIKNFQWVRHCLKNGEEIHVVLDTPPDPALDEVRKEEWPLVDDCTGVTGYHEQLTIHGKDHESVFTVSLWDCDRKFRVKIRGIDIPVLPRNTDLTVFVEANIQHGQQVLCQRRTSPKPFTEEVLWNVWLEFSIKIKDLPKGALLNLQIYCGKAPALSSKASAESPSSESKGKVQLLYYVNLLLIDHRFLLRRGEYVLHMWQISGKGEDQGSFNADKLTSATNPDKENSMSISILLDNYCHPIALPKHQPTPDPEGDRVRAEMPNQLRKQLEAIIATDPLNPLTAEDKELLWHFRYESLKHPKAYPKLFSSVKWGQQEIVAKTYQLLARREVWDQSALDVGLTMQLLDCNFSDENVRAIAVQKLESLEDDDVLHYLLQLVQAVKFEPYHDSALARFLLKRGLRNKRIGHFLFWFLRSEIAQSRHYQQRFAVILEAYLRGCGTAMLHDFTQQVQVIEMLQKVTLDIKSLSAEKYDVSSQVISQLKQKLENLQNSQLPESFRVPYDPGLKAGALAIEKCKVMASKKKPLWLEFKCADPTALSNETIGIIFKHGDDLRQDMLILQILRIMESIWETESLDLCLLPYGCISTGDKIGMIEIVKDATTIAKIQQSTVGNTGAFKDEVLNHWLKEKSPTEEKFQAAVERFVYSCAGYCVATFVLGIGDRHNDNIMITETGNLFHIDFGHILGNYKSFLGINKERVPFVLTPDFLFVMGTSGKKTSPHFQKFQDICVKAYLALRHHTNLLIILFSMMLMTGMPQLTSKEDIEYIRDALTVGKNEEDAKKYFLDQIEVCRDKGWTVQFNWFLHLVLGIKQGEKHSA
T1 sequence (Q8WYR1 whole entry partner, species assumed): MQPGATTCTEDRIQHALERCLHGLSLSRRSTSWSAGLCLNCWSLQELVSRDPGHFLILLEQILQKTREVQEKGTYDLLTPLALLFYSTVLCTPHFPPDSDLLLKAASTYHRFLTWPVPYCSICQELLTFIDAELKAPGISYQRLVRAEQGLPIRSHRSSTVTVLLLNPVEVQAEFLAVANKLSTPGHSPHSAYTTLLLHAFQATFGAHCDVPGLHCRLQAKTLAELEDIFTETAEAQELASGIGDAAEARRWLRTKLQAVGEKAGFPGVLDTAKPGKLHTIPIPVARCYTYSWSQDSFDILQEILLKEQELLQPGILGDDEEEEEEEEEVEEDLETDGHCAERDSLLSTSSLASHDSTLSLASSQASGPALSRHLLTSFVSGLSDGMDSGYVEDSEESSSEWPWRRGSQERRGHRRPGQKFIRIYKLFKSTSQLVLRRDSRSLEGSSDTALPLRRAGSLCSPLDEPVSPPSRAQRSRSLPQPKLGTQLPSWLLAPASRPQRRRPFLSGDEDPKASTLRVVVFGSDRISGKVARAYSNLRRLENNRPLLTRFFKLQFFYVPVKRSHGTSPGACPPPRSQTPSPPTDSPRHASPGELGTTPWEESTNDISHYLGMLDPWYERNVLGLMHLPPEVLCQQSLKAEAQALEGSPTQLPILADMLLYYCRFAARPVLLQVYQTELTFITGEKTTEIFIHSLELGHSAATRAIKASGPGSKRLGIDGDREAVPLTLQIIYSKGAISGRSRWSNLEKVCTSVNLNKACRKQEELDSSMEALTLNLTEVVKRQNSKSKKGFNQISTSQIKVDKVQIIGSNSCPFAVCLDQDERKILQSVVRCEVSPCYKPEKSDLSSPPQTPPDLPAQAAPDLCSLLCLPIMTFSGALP

Question: With O=C1NC(=S)SC1=Cc1ccc2c(c1)N(Cc1ccc(Cl)cc1)C(=O)CO2 [Example 179, 4-(4-Chloro-benzyl)-6-(4-oxo-2-thioxo-thiazolidin-5-ylidenemethyl)-4H-1,4-benzoxazin-3-one] as the compound, how does the IC50 read?
Answer: 7 nM

Question: For O=C1NC(=S)SC1=Cc1ccc2c(c1)N(Cc1ccccc1)C(=O)CO2 [Example 180, 4-Benzyl-6-(4-oxo-2-thioxo-thiazolidin-5-ylidenemethyl)-4H-1,4-benzoxazin-3-one], which IC50 is on record?
Answer: 9 nM

Question: With Cc1cc(C)cc(CN2C(=O)COc3ccc(C=C4SC(=S)NC4=O)cc32)c1 [Example 181, 4-(3,5-Dimethyl-benzyl)-6-(4-oxo-2-thioxo-thiazolidin-5-ylidenemethyl)-4H-1,4-benzoxazin-3-one] as the compound, how does the IC50 read?
Answer: 10 nM

Question: COc1ccc(CN2C(=O)COc3ccc(C=C4SC(=S)NC4=O)cc32)cc1 [Example 182, 4-(4-Methoxy-benzyl)-6-(4-oxo-2-thioxo-thiazolidin-5-ylidenemethyl)-4H-1,4-benzoxazin-3-one] was tested. Which IC50 did it give?
Answer: 165 nM

Question: For O=C1NC(=S)SC1=Cc1ccc2c(c1)N(Cc1ccc([N+](=O)[O-])cc1)C(=O)CO2 [Example 183, 4-(4-Nitro-benzyl)-6-(4-oxo-2-thioxo-thiazolidin-5-ylidenemethyl)-4H-1,4-benzoxazin-3-one], which IC50 is on record?
Answer: 21 nM

Question: How did the IC50 turn out when CC(C)(C)c1ccc(CN2C(=O)COc3ccc(C=C4SC(=S)NC4=O)cc32)cc1 [Example 184, 4-(4-tert-Butyl-benzyl)-6-(4-oxo-2-thioxo-thiazolidin-5-ylidenemethyl)-4H-1,4-benzoxazin-3-one] was run?
Answer: 3 nM

Question: With O=C1NC(=S)SC1=Cc1ccc2c(c1)N(Cc1cc(C(F)(F)F)cc(C(F)(F)F)c1)C(=O)CO2 [Example 185, 4-(3,5-Bis-trifluoromethyl-benzyl)-6-(4-oxo-2-thioxo-thiazolidin-5-ylidenemethyl)-4H-1,4-benzoxazin-3-one] as the compound, how does the IC50 read?
Answer: 102 nM

Question: O=C1NC(=S)SC1=Cc1ccc2c(c1)N(CC(=O)c1ccc3c(c1)oc1ccccc13)C(=O)CO2 [Example 186, 4-(2-Dibenzofuran-3-yl-2-oxo-ethyl)-6-(4-oxo-2-thioxo-thiazolidin-5-ylidenemethyl)-4H-1,4-benzoxazin-3-one] was tested. Which IC50 did it give?
Answer: 315 nM

Question: O=C1NC(=S)SC1=Cc1ccc2c(c1)N(Cc1cc(F)cc(C(F)(F)F)c1)C(=O)CO2 [Example 187, 4-(3-Fluoro-5-trifluoromethyl-benzyl)-6-(4-oxo-2-thioxo-thiazolidin-5-ylidenemethyl)-4H-1,4-benzoxazin-3-one] was tested. Which IC50 did it give?
Answer: 98 nM

Question: Which IC50 does the source give for O=C1NC(=S)SC1=Cc1ccc2c(c1)N(Cc1ccc3ccccc3c1)C(=O)CO2 [Example 188, 4-Naphthalen-2-ylmethyl-6-(4-oxo-2-thioxo-thiazolidin-5-ylidenemethyl)-4H-1,4-benzoxazin-3-one] here?
Answer: 20 nM

Question: Which IC50 does the source give for O=C1NC(=S)SC1=Cc1cnc2c(c1)N(Cc1ccccc1)C(=O)CO2 [Example 189, 1-Benzyl-7-(4-oxo-2-thioxo-thiazolidin-5-ylidenemethyl)-1H-pyrido[2,3-b][1,4]oxazin-2-one; compound with ethane-1,2-diamine] here?
Answer: 640 nM

Question: CN1CC(=O)Nc2cc(C=C3SC(=S)NC3=O)ccc21 [Example 190, 4-Methyl-7-(4-oxo-2-thioxo-thiazolidin-5-ylidenemethyl)-3,4-dihydro-1H-quinoxalin-2-one] was tested. Which IC50 did it give?
Answer: 240 nM

Question: How did the IC50 turn out when O=C1NC(=S)OC1=Cc1ccc2c(c1)N(Cc1ccc(Cl)c(Cl)c1)C(=O)CO2 [Example 191, 4-(3,4-Dichloro-benzyl)-6-(4-oxo-2-thioxo-oxazolidin-5-ylidenemethyl)-4H-1,4-benzoxazin-3-one] was run?
Answer: 7 nM

Question: Which IC50 does the source give for CS(=O)(=O)c1ccc(CN2C(=O)COc3ccc(C=C4SC(=S)NC4=O)cc32)cc1 [Example 192, 4-(4-Methanesulfonyl-benzyl)-6-(4-oxo-2-thioxo-thiazolidin-5-ylidenemethyl)-4H-1,4-benzoxazin-3-one] here?
Answer: 8 nM

Question: How did the IC50 turn out when CS(=O)(=O)c1ccc(CN2C(=O)COc3ccc(C=C4SC(=S)NC4=O)cc32)cc1 [Example 193, 4-(4-Methanesulfonyl-benzyl)-6-(4-oxo-2-thioxo-thiazolidin-5-ylidenemethyl)-4H-1,4-benzoxazin-3-one, Potassium Salt] was run?
Answer: 6 nM

Question: O=C1NC(=S)SC1=Cc1ccc2c(c1)N(Cc1ccc(Cl)c(C(F)(F)F)c1)C(=O)CO2 [Example 194, 4-(4-Chloro-3-trifluoromethylbenzyl)-6-(4-oxo-2-thioxo-thiazolidin-5-ylidenemethyl)-4H-1,4-benzoxazin-3-one, Potassium Salt] was tested. Which IC50 did it give?
Answer: 6 nM

Question: With O=C1COc2ncc(C=C3SC(=S)NC3=O)cc2N1 [Example 195, 7-(4-Oxo-2-thioxo-thiazolidin-5-ylidenemethyl)-1H-pyrido[2,3-b][1,4]oxazin-2-one] as the compound, how does the IC50 read?
Answer: 1910 nM

Question: How did the IC50 turn out when O=C1NC(=S)OC1=Cc1ccc2c(c1)N(Cc1ccc(Cl)c(C(F)(F)F)c1)C(=O)CO2 [Example 196, 4-(4-Chloro-3-trifluoromethyl-benzyl)-6-(4-oxo-2-thioxo-oxazolidin-5-ylidenemethyl)-4H-1,4-benzoxazin-3-one] was run?
Answer: 26 nM

Question: CN1CC(=O)N(Cc2ccccc2)c2cc(C=C3SC(=S)NC3=O)ccc21 [Example 197, 1-Benzyl-4-methyl-7-(4-oxo-2-thioxo-thiazolidin-5-ylidenemethyl)-3,4-dihydro-1H-quinoxalin-2-one] was tested. Which IC50 did it give?
Answer: 390 nM

Question: With O=C1NC(=S)SC1=Cc1ccc2c(c1)N(Cc1ccc(Cl)c(Cl)c1)C(=O)CS2 [Example 198, 4-(3,4-Dichloro-benzyl)-6-(4-oxo-2-thioxo-thiazolidin-5-ylidenemethyl)-4H-1,4-benzothiazin-3-one] as the compound, how does the IC50 read?
Answer: 6 nM

Question: How did the IC50 turn out when O=C1NC(=S)OC1=Cc1ccc2c(c1)N(Cc1ccc(Cl)c(Cl)c1)C(=O)CS2 [Example 199, 4-(3,4-Dichlorobenzyl)-6-(4-oxo-2-thioxo-oxazolidin-5-ylidenemethyl)-4H-benzo[1,4]thiazin-3-one] was run?
Answer: 9 nM

Question: Which IC50 does the source give for O=C1COc2ccc(C=C3NC(=S)NC3=O)cc2N1 [Example 200, 6-(5-Oxo-2-thioxo-imidazolidin-4-ylidenemethyl)-4H-benzo[1,4]oxazin-3-one] here?
Answer: 3640 nM

Question: Which IC50 does the source give for CC(C)(C)c1cc(CN2C(=O)COc3ccc(C=C4OC(=S)NC4=O)cc32)cc(C(C)(C)C)n1 [Example 201, 4-(2,6-Di-tert-butyl-pyridin-4-ylmethyl)-6-(4-oxo-2-thioxo-oxazolidin-5-ylidenemethyl)-4H-1,4-benzoxazin-3-one] here?
Answer: 70 nM

Question: O=C1NC(=O)C(=Cc2ccc3c(c2)N(Cc2ccccc2)C(=O)CO3)S1 [Example 202, 5-(4-Benzyl-3-oxo-3,4-dihydro-2H-1,4-benzoxazin-6-ylmethylene)-thiazolidine-2,4-dione] was tested. Which IC50 did it give?
Answer: 3 nM

Question: With O=C1COc2ccc(C=C3OC(=O)NC3=O)cc2N1 [Example 203, 5-(3-Oxo-3,4-dihydro-2H-1,4-benzoxazin-6-ylmethylene)-oxazolidine-2,4-dione] as the compound, how does the IC50 read?
Answer: 175 nM

Question: COc1cc(CN2C(=O)COc3ccc(C=C4SC(=S)NC4=O)cc32)cc(Cl)n1 [Example 205, 4-(2-Chloro-6-methoxy-pyridin-4-ylmethyl)-6-(4-oxo-2-thioxo-thiazolidin-5-ylidenemethyl)-4H-benzo[1,4]oxazin-3-one] was tested. Which IC50 did it give?
Answer: 32 nM

Question: With COc1cc(CN2C(=O)COc3ccc(C=C4SC(=S)NC4=O)cc32)cc(OC)n1 [Example 206, 4-(2,6-Dimethoxy-pyridin-4-ylmethyl)-6-(4-oxo-2-thioxo-thiazolidin-5-ylidenemethyl)-4H-benzo[1,4]oxazine-3-one] as the compound, how does the IC50 read?
Answer: 60 nM

Question: How did the IC50 turn out when CC(C)c1cc(CN2C(=O)COc3ccc(C=C4SC(=S)NC4=O)cc32)cc(C(C)C)c1 [Example 210, 4-(3,5-Diisopropyl-benzyl)-6-(4-oxo-2-thioxo-thiazolidin-5-ylidenemethyl)-4H-benzo[1,4]oxazin-3-one] was run?
Answer: 45 nM

Question: Which IC50 does the source give for Cc1cc(CN2C(=O)COc3ccc(C=C4SC(=S)NC4=O)cc32)cc(C(C)(C)C)c1 [Example 211, 4-(3-tert-Butyl-5-methyl-benzyl)-6-(4-oxo-2-thioxo-thiazolidin-5-ylidenemethyl)-4H-1,4-benzoxazin-3-one] here?
Answer: 17 nM

Question: Which IC50 does the source give for CC(C)(C)c1cc(CO)cc(CN2C(=O)COc3ccc(C=C4SC(=S)NC4=O)cc32)c1 [Example 212, 4-(3-tert-Butyl-5-hydroxymethyl-benzyl)-6-(4-oxo-2-thioxo-thiazolidin-5-ylidenemethyl)-4H-1,4-benzoxazin-3-one] here?
Answer: 22 nM

Question: CC1CC(C)CN(C(=O)CN2C(=O)COc3ccc(C=C4SC(=S)NC4=O)cc32)C1 (centres unmarked) [Example 213, 4-[2-(3,5-Dimethyl-piperidin-1-yl)-2-oxo-ethyl]-6-(4-oxo-2-thioxo-thiazolidin-5-ylidenemethyl)-4H-1,4-benzoxazin-3-one] was tested. Which IC50 did it give?
Answer: 2100 nM

Question: CC(C)(C)OC(=O)N1CCN(C(=O)CN2C(=O)COc3ccc(C=C4SC(=S)NC4=O)cc32)CC1 [Example 214, 4-{2-[3-Oxo-6-(4-oxo-2-thioxo-thiazolidin-5-ylidenemethyl)-2,3-dihydro-1,4-benzoxazin-4-yl]-acetyl}-piperazine-1-carboxylic acid tert-butyl ester] was tested. Which IC50 did it give?
Answer: 3180 nM

Question: For O=C1NC(=S)SC1=Cc1ccc2c(c1)N(CC(=O)N1CCNCC1)C(=O)CO2 [Example 215, 4-(2-Oxo-2-piperazin-1-yl-ethyl)-6-(4-oxo-2-thioxo-thiazolidin-5-ylidenemethyl)-4H-1,4-benzoxazin-3-one], which IC50 is on record?
Answer: 1080 nM

Question: With CC(C)(C)c1cc(CN2C(=O)COc3ccc(C=C4SC(=S)NC4=O)cc32)cc(C(N)=O)c1 [Example 216, 3-tert-Butyl-5-[3-oxo-6-(4-oxo-2-thioxo-thiazolidin-5-ylidenemethyl)-2,3-dihydro-1,4-benzoxazin-4-ylmethyl]-benzamide] as the compound, how does the IC50 read?
Answer: 26 nM

Question: Which IC50 does the source give for O=C1NC(=S)SC1=Cc1ccc2c(c1)N(Cc1cc(Br)cc(Br)c1)C(=O)CO2 [Example 217, 4-(3,5-Dibromo-benzyl)-6-(4-oxo-2-thioxo-thiazolidin-5-ylidenemethyl)-4H-1,4-benzoxazin-3-one] here?
Answer: 42 nM
